Data from patent US12187723B2 (BRISTOL-MYERS SQUIBB COMPANY, priority 2019, dated 2025).

Columns and labels:
human TLR7 = molecular target: T1, human TLR7 (Homo sapiens, UniProt Q9NYK1); assay: TLR7 inhibition reporter assay (HEK-Blue SEAP); type: cell-based; conditions: HEK-Blue cells overexpressing human TLR7, gardiquimod 7.5 μM, 22 hour incubation
T1 construct: host or cells: HEK-Blue cells
T1 sequence (Q9NYK1 27-1049): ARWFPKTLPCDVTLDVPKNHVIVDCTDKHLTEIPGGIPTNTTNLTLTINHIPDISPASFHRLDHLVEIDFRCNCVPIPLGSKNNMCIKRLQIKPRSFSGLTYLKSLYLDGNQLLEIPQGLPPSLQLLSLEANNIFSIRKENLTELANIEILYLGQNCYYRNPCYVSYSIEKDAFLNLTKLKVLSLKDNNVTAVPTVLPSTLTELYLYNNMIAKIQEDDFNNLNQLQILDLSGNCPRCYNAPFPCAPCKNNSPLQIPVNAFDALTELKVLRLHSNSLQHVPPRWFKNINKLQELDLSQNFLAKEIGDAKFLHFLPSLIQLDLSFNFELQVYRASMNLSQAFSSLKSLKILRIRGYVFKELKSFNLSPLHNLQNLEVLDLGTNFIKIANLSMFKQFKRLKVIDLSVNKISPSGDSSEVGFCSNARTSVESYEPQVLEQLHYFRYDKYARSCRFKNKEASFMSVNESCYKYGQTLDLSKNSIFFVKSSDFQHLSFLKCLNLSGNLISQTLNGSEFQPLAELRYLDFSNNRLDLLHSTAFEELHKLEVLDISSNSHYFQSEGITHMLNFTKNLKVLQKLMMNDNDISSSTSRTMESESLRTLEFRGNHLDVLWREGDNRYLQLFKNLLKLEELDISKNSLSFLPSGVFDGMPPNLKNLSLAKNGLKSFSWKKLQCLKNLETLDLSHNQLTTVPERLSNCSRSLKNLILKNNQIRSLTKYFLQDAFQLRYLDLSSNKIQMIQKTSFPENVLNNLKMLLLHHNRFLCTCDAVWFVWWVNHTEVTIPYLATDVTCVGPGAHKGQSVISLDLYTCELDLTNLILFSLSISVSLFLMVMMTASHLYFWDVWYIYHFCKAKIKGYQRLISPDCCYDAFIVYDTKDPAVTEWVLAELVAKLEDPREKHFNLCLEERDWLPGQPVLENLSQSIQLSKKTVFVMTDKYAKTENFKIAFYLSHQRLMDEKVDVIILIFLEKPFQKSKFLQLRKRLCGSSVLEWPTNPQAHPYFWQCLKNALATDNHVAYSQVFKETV
Summary of the method: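 22 h, 37° C, 5% CO2 incubation; compounds 0.05 nM-50 μM final; TLR7 cells 15000/well, TLR8 20,000/well. Readout: SEAP via HEK-Blue Detection medium. % inhibition = signal reduction versus agonist + DMSO wells, referenced to known inhibitor.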

human TLR8 = molecular target: T2, human TLR8 (Homo sapiens, UniProt Q9NR97); assay: TLR8 inhibition reporter assay (HEK-Blue SEAP); type: cell-based; conditions: HEK-Blue cells overexpressing human TLR8, R848 15.9 μM, 22 hour incubation
T2 construct: host or cells: HEK-Blue cells
T2 sequence (Q9NR97 27-1041): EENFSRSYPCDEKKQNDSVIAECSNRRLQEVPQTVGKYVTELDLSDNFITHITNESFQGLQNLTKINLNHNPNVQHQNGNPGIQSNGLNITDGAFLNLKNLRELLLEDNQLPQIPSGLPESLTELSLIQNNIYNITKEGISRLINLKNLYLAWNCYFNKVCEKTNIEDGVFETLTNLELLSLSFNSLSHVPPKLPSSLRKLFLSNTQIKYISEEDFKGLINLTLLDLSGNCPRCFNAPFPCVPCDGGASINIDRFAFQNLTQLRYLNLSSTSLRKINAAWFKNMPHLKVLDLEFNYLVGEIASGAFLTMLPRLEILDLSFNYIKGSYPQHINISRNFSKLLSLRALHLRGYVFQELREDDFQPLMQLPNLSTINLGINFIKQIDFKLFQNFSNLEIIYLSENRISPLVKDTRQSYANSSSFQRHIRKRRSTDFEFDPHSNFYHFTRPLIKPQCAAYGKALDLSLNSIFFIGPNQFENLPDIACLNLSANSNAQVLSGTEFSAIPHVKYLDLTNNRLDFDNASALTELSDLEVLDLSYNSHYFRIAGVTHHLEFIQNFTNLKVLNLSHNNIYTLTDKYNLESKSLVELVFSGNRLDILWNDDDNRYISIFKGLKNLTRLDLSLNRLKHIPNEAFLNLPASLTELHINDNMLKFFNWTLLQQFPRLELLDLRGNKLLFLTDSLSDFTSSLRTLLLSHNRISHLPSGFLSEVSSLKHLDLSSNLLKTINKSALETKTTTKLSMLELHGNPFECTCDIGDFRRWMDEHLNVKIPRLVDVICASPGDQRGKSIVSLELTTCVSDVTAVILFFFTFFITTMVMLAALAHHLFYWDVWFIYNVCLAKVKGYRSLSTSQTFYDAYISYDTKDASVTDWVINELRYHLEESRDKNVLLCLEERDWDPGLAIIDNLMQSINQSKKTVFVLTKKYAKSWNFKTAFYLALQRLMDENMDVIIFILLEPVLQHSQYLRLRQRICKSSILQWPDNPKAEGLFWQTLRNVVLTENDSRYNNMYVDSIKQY
Summary of the method: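 Compound treatment: 30 min, RT, 0.05 nM–50 μM final. Agonist: TLR7 gardiquimod 7.5 μM; TLR8 R848 15.9 μM; TLR9 ODN2006 5 nM. Incubation 22 h, 37 °C, 5% CO2. Readout SEAP, HEK-Blue Detection.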

Structure (SMILES) | IC50 (human TLR7) | IC50 (human TLR8)
COc1c(C)c(-c2cc3[nH]c(=O)n(C4CCC(N5CCC(F)(F)CC5)CC4)c3cc2C(C)C)cn2ncnc12 (single isomer, unassigned) [Example 230, 1-(4-(4,4-difluoropiperidin-1-yl)cyclohexyl)-6-isopropyl-5-(8-methoxy-7-methyl-[1,2,4]triazolo[1,5-a]pyridin-6-yl)-1,3-dihydro-2H-benzo[d]imidazol-2-one] | 60.3 nM | 5.49 nM
COc1cc(-c2cc3[nH]c(=O)n(C4CCC(N5CCNC(=O)C5)CC4)c3cc2C(C)C)cn2ncnc12 (single isomer, unassigned) [Example 234, 6-isopropyl-5-(8-methoxy-[1,2,4]triazolo[1,5-a]pyridin-6-yl)-1-(4-(3-oxopiperazin-1-yl)cyclohexyl)-1,3-dihydro-2H-benzo[d]imidazol-2-one] | 42.7 nM | 10.5 nM
Cc1cc2c(cc1-c1cc(C)c3ncnn3c1)[nH]c(=O)n2[C@H]1CCCN(C)C1 [Example 11, (S)-6-methyl-5-(8-methyl-[1,2,4]triazolo[1,5-a]pyridin-6-yl)-1-(1-methylpiperidin-3-yl)-1,3-dihydro-2H-benzo[d]imidazol-2-one] | 276 nM | 143 nM
CCN1CCC[C@H](n2c(=O)[nH]c3cc(-c4cc(C)c5ncnn5c4)c(C)cc32)C1 [Example 12, (S)-1-(1-ethylpiperidin-3-yl)-6-methyl-5-(8-methyl-[1,2,4]triazolo[1,5-a]pyridin-6-yl)-1,3-dihydro-2H-benzo[d]imidazol-2-one] | 144 nM | 92.5 nM
Cc1cc2c(cc1-c1cc(C)c3ncnn3c1)[nH]c(=O)n2[C@H]1CCCN(C(C)C)C1 [Example 13, (S)-1-(1-isopropylpiperidin-3-yl)-6-methyl-5-(8-methyl-[1,2,4]triazolo[1,5-a]pyridin-6-yl)-1,3-dihydro-2H-benzo[d]imidazol-2-one] | 124 nM | 62.9 nM
Cc1cc2c(cc1-c1cc(C)c3ncnn3c1)[nH]c(=O)n2[C@H]1CCCN(C2COC2)C1 [Example 14, (S)-6-methyl-5-(8-methyl-[1,2,4]triazolo[1,5-a]pyridin-6-yl)-1-(1-(oxetan-3-yl)piperidin-3-yl)-1,3-dihydro-2H-benzo[d]imidazol-2-one] | 787 nM | 155 nM
Cc1cc2c(cc1-c1cc(C)c3ncnn3c1)[nH]c(=O)n2[C@@H]1CCCN(C)C1 [Example 15, (R)-6-methyl-5-(8-methyl-[1,2,4]triazolo[1,5-a]pyridin-6-yl)-1-(1-methylpiperidin-3-yl)-1,3-dihydro-2H-benzo[d]imidazol-2-one] | 24.6 nM | 22.9 nM

These reach a lower IC50 (human TLR7). Values come first.

IC50 (human TLR7) | IC50 (human TLR8) | Structure (SMILES)
5.33 nM | 5.19 nM | COc1cc(-c2cc3[nH]c(=O)n([C@@H]4CCCN(C5CCCOC5)C4)c3cc2C(C)C)cn2ncnc12 (single isomer, unassigned) [Example 218]
0.05 nM | 0.15 nM | COc1cc(-c2cc3[nH]c(=O)n([C@@H]4CCCN(C5CCCOC5)C4)c3cc2C(C)C)cn2ncnc12 (single isomer, unassigned) [Example 219]
7.96 nM | 3.37 nM | COCCN1CCC[C@@H](n2c(=O)[nH]c3cc(-c4cc(OC)c5ncnn5c4)c(C(C)C)cc32)C1 (single isomer, unassigned) [Example 225]
7.31 nM | 2.18 nM | COc1c(C)c(-c2cc3[nH]c(=O)n(C4CCC(N5CCC(F)(F)CC5)CC4)c3cc2C(C)C)cn2ncnc12 (single isomer, unassigned) [Example 229, 1-(4-(4,4-difluoropiperidin-1-yl)cyclohexyl)-6-isopropyl-5-(8-methoxy-7-methyl-[1,2,4]triazolo[1,5-a]pyridin-6-yl)-1,3-dihydro-2H-benzo[d]imidazol-2-one]
11 nM | 1.9 nM | COc1cc(-c2cc3[nH]c(=O)n(C4CCC(N5CCNC(=O)C5)CC4)c3cc2C(C)C)cn2ncnc12 (single isomer, unassigned) [Example 233, 6-isopropyl-5-(8-methoxy-[1,2,4]triazolo[1,5-a]pyridin-6-yl)-1-(4-(3-oxopiperazin-1-yl)cyclohexyl)-1,3-dihydro-2H-benzo[d]imidazol-2-one]
1.52 nM | 0.39 nM | COc1cc(-c2cc3[nH]c(=O)n(C4CCC(N5CC6(CCOCC6)C5)CC4)c3cc2C(C)C)cn2ncnc12 (single isomer, unassigned) [Example 235, 1-(4-(7-oxa-2-azaspiro[3.5]nonan-2-yl)cyclohexyl)-6-isopropyl-5-(8-methoxy-[1,2,4]triazolo[1,5-a]pyridin-6-yl)-1,3-dihydro-2H-benzo[d]imidazol-2-one]
3.54 nM | 0.35 nM | COc1cc(-c2cc3[nH]c(=O)n(C4CCC(N5CC6(CCOCC6)C5)CC4)c3cc2C(C)C)cn2ncnc12 (single isomer, unassigned) [Example 236, 1-(4-(7-oxa-2-azaspiro[3.5]nonan-2-yl)cyclohexyl)-6-isopropyl-5-(8-methoxy-[1,2,4]triazolo[1,5-a]pyridin-6-yl)-1,3-dihydro-2H-benzo[d]imidazol-2-one]
3.01 nM | 0.49 nM | COc1cc(-c2cc3[nH]c(=O)n(C4CCC(N5CC(O)(C(F)(F)F)C5)CC4)c3cc2C(C)C)cn2ncnc12 (single isomer, unassigned) [Example 241, 1-(4-(3-hydroxy-3-(trifluoromethyl)azetidin-1-yl)cyclohexyl)-6-isopropyl-5-(8-methoxy-[1,2,4]triazolo[1,5-a]pyridin-6-yl)-1,3-dihydro-2H-benzo[d]imidazol-2-one]
10.4 nM | 1.12 nM | COc1cc(-c2cc3[nH]c(=O)n(C4CCC(N5CC(O)(C(F)(F)F)C5)CC4)c3cc2C(C)C)cn2ncnc12 (single isomer, unassigned) [Example 242, 1-(4-(3-hydroxy-3-(trifluoromethyl)azetidin-1-yl)cyclohexyl)-6-isopropyl-5-(8-methoxy-[1,2,4]triazolo[1,5-a]pyridin-6-yl)-1,3-dihydro-2H-benzo[d]imidazol-2-one]
17 nM | 31.4 nM | CCN1CCC[C@@H](n2c(=O)[nH]c3cc(-c4cc(C)c5ncnn5c4)c(C)cc32)C1 [Example 16, (R)-1-(1-ethylpiperidin-3-yl)-6-methyl-5-(8-methyl-[1,2,4]triazolo[1,5-a]pyridin-6-yl)-1,3-dihydro-2H-benzo[d]imidazol-2-one]
